From patent US20240300951A1, “Pyrazolopyridinone Compounds” (BeiGene Ltd., priority 2021, published 2024)

Legend:
DGKζ = target: T1, DGKζ (Homo sapiens, UniProt Q13574); assay: Biochemical DGK IC50 assay, DGKζ ADP-Glo assay; conditions: full length DGKζ 0.5 nM, ATP 140 μM, DAG 80 μM
T1 construct: His (N); TEV cleavage site (N); made in house; host or cells: Sf9 insect cells (baculovirus, Bac-to-Bac)
Experimental: (§1) Enzymatic reactions of DGKζ, DGKα and DGKδ were performed using ADP-Glo assay with lipid micelle substrate. […] Full length DGKα (D21-10BG, SignalChem) and full length DGKδ (D23-10G, SignalChem) were purchased. Lipid micelle was prepared by dissolving DAG (Sigma, 317505-10MG) and PS (Sigma, P7769-100MG) with chloroform which was furtherly removed by rotary evaporation. The resulted product was resuspended in buffer containing 25 mM HEPES pH 7.0, 0.5 mM EDTA and 160 mM Octyl β-D glucopyranoside by vigorous mixing and ultrasonic (IID, Scientz)
(§2) The ranges of compounds final concentration were 1.55-10000 nM or 23.3-150000 nM. 3 μL 2× enzyme solution was added to wells.
Human His-TEV-DGK-zeta-pFastBac1 and human baculovirus samples was generated using the Bac-to-Bac baculovirus expression system (Invitrogen) according to the manufacturer's protocol. The DNA used for expression of DGK-zeta, have SEQ ID Nos: 1. Baculovirus amplification was achieved using infected SF9 cells at 1:2000 virus/cells ratios, and grown for 96 hours at 27° C. post-transfected.
The expression scaled up for each protein was carried out in the […] from CORNING. 4 L of 3×10^6 cells/mL Sf9 cells (Expression System, Invitrogen) grown in SF900™ II SFM insect medium (Expression System) was infected with virus stock at 1:200 virus/cells ratio, and grown for 48 hours at 27° C. post-transfection. The infected cell culture was harvested by centrifugation at 6000 rpm for 15 min 4° C. in a SORVALL LYNX6000 centrifuge. The cell pellets were stored at −80° C.
Full length human DGK produced as described above, was purified from Sf9 baculovirus-infected insect cell paste. The cells were lysed using sonication method, and the lysates were clarified by centrifugation.

DGKα = target: T2, DGKα (Homo sapiens, UniProt P23743); assay: Biochemical DGK IC50 assay, DGKα ADP-Glo assay; conditions: full length DGKα 7.5 nM, ATP 140 μM, DAG 80 μM
T2 construct: Full length DGKα (D21-10BG, SignalChem); purchased SignalChem D21-10BG
Experimental: as §1, §2

T1 sequence (Q13574 1-929 isoform Q13574-4): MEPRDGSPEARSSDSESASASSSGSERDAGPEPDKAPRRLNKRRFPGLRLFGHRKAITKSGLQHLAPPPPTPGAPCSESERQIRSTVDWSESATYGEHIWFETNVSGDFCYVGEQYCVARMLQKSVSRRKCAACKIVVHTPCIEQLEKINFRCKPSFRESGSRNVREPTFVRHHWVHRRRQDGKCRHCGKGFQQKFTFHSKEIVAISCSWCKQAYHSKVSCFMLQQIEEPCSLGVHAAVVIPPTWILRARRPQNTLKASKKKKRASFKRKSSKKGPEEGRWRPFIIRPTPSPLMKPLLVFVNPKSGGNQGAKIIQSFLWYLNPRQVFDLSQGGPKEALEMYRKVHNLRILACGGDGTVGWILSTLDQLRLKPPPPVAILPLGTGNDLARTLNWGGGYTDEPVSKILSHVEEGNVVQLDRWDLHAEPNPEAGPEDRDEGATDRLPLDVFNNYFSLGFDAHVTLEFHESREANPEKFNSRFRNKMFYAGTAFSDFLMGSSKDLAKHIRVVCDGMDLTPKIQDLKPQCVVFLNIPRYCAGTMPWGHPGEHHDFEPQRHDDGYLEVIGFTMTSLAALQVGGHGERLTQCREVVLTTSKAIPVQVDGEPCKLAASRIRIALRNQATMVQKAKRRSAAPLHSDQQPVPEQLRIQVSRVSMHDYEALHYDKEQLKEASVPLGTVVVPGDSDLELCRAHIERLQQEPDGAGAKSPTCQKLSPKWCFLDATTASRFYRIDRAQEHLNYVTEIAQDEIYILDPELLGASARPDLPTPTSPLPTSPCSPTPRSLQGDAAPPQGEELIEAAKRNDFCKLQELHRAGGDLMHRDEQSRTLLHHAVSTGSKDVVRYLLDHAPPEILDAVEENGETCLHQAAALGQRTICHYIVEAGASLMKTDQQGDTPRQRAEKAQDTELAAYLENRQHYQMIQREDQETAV
T2 sequence (P23743 whole entry): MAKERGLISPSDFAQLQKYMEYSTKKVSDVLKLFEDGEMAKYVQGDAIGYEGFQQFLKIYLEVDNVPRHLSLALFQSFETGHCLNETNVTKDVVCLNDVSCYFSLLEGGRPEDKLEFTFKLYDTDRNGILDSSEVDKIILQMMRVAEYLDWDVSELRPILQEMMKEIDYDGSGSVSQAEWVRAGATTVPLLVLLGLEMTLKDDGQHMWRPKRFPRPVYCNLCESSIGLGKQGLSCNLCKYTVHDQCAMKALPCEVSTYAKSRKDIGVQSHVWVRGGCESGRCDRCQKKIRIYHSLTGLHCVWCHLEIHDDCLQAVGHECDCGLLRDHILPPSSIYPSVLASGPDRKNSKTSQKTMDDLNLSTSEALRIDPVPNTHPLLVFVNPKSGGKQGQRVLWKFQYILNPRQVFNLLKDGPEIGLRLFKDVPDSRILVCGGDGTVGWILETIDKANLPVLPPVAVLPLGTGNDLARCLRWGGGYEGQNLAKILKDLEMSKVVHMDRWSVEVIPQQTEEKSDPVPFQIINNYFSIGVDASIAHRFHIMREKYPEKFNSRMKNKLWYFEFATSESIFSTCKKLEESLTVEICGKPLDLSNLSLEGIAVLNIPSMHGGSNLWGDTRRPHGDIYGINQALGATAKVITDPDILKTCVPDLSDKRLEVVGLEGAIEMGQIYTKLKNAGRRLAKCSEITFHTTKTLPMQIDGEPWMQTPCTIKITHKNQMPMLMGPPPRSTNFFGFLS

| IC50 (DGKζ) [nM] | IC50 (DGKα) [nM] | Molecule |
| --- | --- | --- |
| 9200 | > 10000 | 7-((2S,5R)-4-(1-(1-(2,2-difluoroethyl)-1H-pyrazol-5-yl)ethyl)-2,5-diethylpiperazin-1-yl)-4-methyl-2,4-dihydro-5H-pyrazolo[4,3-b]pyridin-5-one [Compound A228] |
| 2220 | > 10000 | COCc1cc(F)ccc1C(C)N1C[C@H](C)N(c2cc(=O)n(C)c3cn(CC#N)nc23)C[C@H]1C (single isomer, unassigned) [Compound A29a] |
| 135 | 3340 | CC(c1ccc2c(c1)OCC(C)(C)O2)N1C[C@H](C)N(c2cc(=O)n(C)c3cn(CC#N)nc23)C[C@H]1C (single isomer, unassigned) [Compound A46c] |
| 9 | 11400 | CC(c1ccc2c(c1)OC(C)(C)CO2)N1C[C@H](C)N(c2cc(=O)n(C)c3cn(CC#N)nc23)C[C@H]1C (single isomer, unassigned) [Compound A46d] |
| 6160 | 26000 | CC(c1ccc2c(c1)OCC(C)(C)O2)N1C[C@H](C)N(c2cc(=O)n(C)c3cn(CC#N)nc23)C[C@H]1C (single isomer, unassigned) [Compound A46e] |
| 850 | 1200 | CC[C@H]1CN(C(C)c2ccc(C3CC3)cc2F)[C@H](CC)CN1c1cc(=O)n(C)c2cn(CC#N)nc12 (single isomer, unassigned) [Compound A72a] |
| 15 | 83 | CC[C@H]1CN(C(C)c2ccc(C3CC3)cc2F)[C@H](CC)CN1c1cc(=O)n(C)c2cn(CC#N)nc12 (single isomer, unassigned) [Compound A72b] |
| > 10000 | > 10000 | CC[C@H]1CN(C(C)c2ncccc2OC)[C@H](CC)CN1c1cc(=O)n(C)c2cn(CC#N)nc12 (single isomer, unassigned) [Compound A92a] |
| 2840 | – | CC[C@H]1CN(C(C)c2ncccc2OC)[C@H](CC)CN1c1cc(=O)n(C)c2cn(CC#N)nc12 (single isomer, unassigned) [Compound A92b] |
| 151 | 1160 | CC[C@H]1CN(C(C)c2cccc(C)c2C(F)(F)F)[C@H](CC)CN1c1cc(=O)n(C)c2cn(CC#N)nc12 (single isomer, unassigned) [Compound A110a] |
| 1230 | 9030 | CC[C@H]1CN(C(C)c2cccc(C)c2C(F)(F)F)[C@H](CC)CN1c1cc(=O)n(C)c2cn(CC#N)nc12 (single isomer, unassigned) [Compound A110b] |
| 283 | 440 | CC[C@H]1CN(C2CCCc3ccccc32)[C@H](CC)CN1c1cc(=O)n(C)c2cn(CC#N)nc12 (single isomer, unassigned) [Compound A146a] |
| 4690 | > 10000 | CC[C@H]1CN(C2CCCc3ccccc32)[C@H](CC)CN1c1cc(=O)n(C)c2cn(CC#N)nc12 (single isomer, unassigned) [Compound A146b] |
| 2750 | 5830 | CC[C@H]1CN(C2CCOc3ccccc32)[C@H](CC)CN1c1cc(=O)n(C)c2cn(CC#N)nc12 (single isomer, unassigned) [Compound A150a] |
| 543 | 82.5 | CC[C@H]1CN(C2CCOc3ccccc32)[C@H](CC)CN1c1cc(=O)n(C)c2cn(CC#N)nc12 (single isomer, unassigned) [Compound A150b] |
| 4480 | > 10000 | CC[C@@H]1CN(c2c(Cl)c(=O)n(C)c3cn(CC#N)nc23)CCN1C(C)c1ccc2nccnc2c1 (single isomer, unassigned) [Compound A162a] |
| 4320 | > 10000 | CC[C@H]1CN(C(C)c2ccc(F)cc2C(F)F)[C@H](CC)CN1c1cc(=O)n(C)c2cn(CC#N)nc12 (single isomer, unassigned) [Compound A172a] |
| 3600 | > 10000 | CC[C@@H]1CN(c2cc(=O)[nH]c3cn(CC#N)nc23)[C@@H](C)CN1C(C)c1ccc2nccnc2c1 (single isomer, unassigned) [Compound A177b] |
| 172 | > 10000 | CC[C@H]1CN(C(C)c2ccc3nccnc3c2)[C@H](CC)CN1c1cc(=O)n(C(C)C)c2cn(CC#N)nc12 (single isomer, unassigned) [Compound A190a] |
| > 10000 | – | CC[C@H]1CN(C(C)c2ccc3nccnc3c2)[C@H](CC)CN1c1cc(=O)n(C(C)C)c2cn(CC#N)nc12 (single isomer, unassigned) [Compound A190b] |
| 6780 | > 10000 | CC[C@H]1CN(C(C)c2nc(Cl)cn2CC)[C@H](CC)CN1c1cc(=O)n(C)c2cn(CC#N)nc12 (single isomer, unassigned) [Compound A191a] |
| 1180 | – | CC[C@H]1CN(C(C)c2nc(Cl)cn2CC)[C@H](CC)CN1c1cc(=O)n(C)c2cn(CC#N)nc12 (single isomer, unassigned) [Compound A191b] |
| 1190 | 5090 | CC[C@@H]1CN(c2c(F)c(=O)[nH]c3cn(CC#N)nc23)[C@@H](C)CN1C(C)c1ccc2nccnc2c1 (single isomer, unassigned) [Compound A194b] |
| 166 | > 150000 | CC[C@@H]1CN(c2cc(=O)n(C)c3cn(CC#N)nc23)[C@@H](C)CN1C(C)c1ccc(F)cc1C(F)(F)F (single isomer, unassigned) [Compound A218a] |
| 2390 | > 10000 | CC#CCn1cc2c(n1)c(N1C[C@@H](CC)N(C(C)c3ccc(F)cc3C(F)(F)F)C[C@@H]1CC)cc(=O)n2C (single isomer, unassigned) [Compound A238a] |
| 70 | > 150000 | Cc1c2c(nn1CC#N)c(N1C[C@@H](C)N(C(C)c3ccc(F)cc3C(F)(F)F)C[C@@H]1C)nc(=O)n2C (single isomer, unassigned) [Compound A267b] |
| 21 | 51700 | Cc1cnc2ccc([C@H](C)N3C[C@H](C)N(c4cc(=O)n(C)c5cn(CC#N)nc45)C[C@H]3C)cc2n1 (single isomer, unassigned) [Compound A269d] |
| 1120 | 11200 | CC[C@H]1CN(C(C)c2ccc3nc(OC)cnc3c2)[C@H](CC)CN1c1cc(=O)n(C)c2cn(CC#N)nc12 (single isomer, unassigned) [Compound A281b] |
| 3250 | 1190 | CC[C@H]1CN(C(C)c2ccc(C(F)F)nc2)[C@H](CC)CN1c1cc(=O)n(C)c2cn(CC#N)nc12 (single isomer, unassigned) [Compound A351b] |
| 4590 | 2790 | CC[C@H]1CN(C(C)c2ccc(CN3CCOCC3)cc2)[C@H](CC)CN1c1cc(=O)n(C)c2cn(CC#N)nc12 (single isomer, unassigned) [Compound A383b] |

| Molecule | IC50 (DGKζ) [nM] | IC50 (DGKα) [nM] |
| --- | --- | --- |
| Cc1nc2ccc(C(C)N3C[C@H](C)N(c4cc(=O)n(C)c5cn(CC#N)nc45)C[C@H]3C)cn2n1 (mixture of isomers) [Compound A321] | 4020 | – |
| CCC1CN(c2c(C#N)c(=O)n(C)c3cn(CC#N)nc23)CCN1C(C)c1ccc2nccnc2c1 [Compound A169, 2-(cyanomethyl)-7-((2S,5R)-3-ethyl-4-(1-(quinoxalin-6-yl)ethyl)piperazin-1-yl)-4-methyl-5-oxo-4,5-dihydro-2H-pyrazolo[4,3-b]pyridine-6-carbonitrile] | 701 | > 10000 |
| COc1cc(F)ccc1C(C)N1C[C@H](C)N(c2cc(=O)n(C)c3cn(CC#N)nc23)C[C@H]1C (stereo partly drawn) [Compound A248, 2-(7-((2S,5R)-4-(1-(2-omethoxy-4-fluorophenyl)ethyl)-2,5-dimethylpiperazin-1-yl)-4-methyl-5-oxo-4,5-dihydro-2H-pyrazolo[4,3-b]pyridin-2-yl)acetonitrile] | 579 | – |
